# Measured values from patent US20070149576A1, “Means for protecting against technical materials” (priority 2003, published 2007).
# Columns and labels:
# [1] = tested on: Reticulitermes santonensis (termite); assay: EN 117 determination of the activity threshold against Reticulitermes santonensis (laboratory test); assay type: in vivo; conditions: for activity threshold against termites, EN 117 (with EN 84): after EN 84 leaching stress
# [2] = tested on: Hylotrupes bajulus (house longhorn beetle); assay: EN 46 determination of the prophylactic effect on egg larvae of Hylotrupes bajulus (laboratory test); assay type: in vivo; conditions: for activity threshold against wood-destroying beetles, EN 46 (with EN 84): after EN 84 leaching stress
Compound,"activity threshold against termites, EN 117 (with EN 84) [1]","activity threshold against termites, EN 117 (without stress) ([1]; without stress)","activity threshold against wood-destroying beetles, EN 46 (with EN 84) [2] [g/m^2]","activity threshold against wood-destroying beetles, EN 46 (without stress) [2] [g/m^2]"
CCOC(=O)NCCOc1ccc(Oc2ccccc2)cc1 [fenoxycarb],ineffective,ineffective,0.050,0.005
CC1(C)C(C=C(Cl)Cl)C1C(=O)OC(C#N)c1ccc(F)c(Oc2ccccc2)c1 (stereo not shown) [cyfluthrin],10-20 g/m^3,,<0.006,<0.006
